The results in this text go back to patent US11541099B2, “Flounder surimi having antioxidant and antihypertensive effects and method of preparing the same” (Jeju National University Industry-Academic Cooperation …, priority 2017, dated 2023).

Converted amounts (≈) assume the structure as drawn. Residues, ends and D or L forms follow the SMILES beside them. No end group written: not given here.

The nature of assay [1]: Alkyl radical scavenging activity by ESR. The settings on record: peptides isolated from Fraction 2. Here is the method:
In order to identify the radical scavenging ability using ESR (electron spin resonance spectrometer, JES-FA ESR, JEOL, Japan), ESR equipment owned by the Center for University-Wide Research Facilities, Jeju University was used and was in accordance with a modified version of the method by Hiramoto (1993). 20 μL of a sample was mixed with 20 μL of distilled water, 20 μL of 40 mM AAPH and 20 μL of 40 mM POBN were added to the resulting mixture, the reaction was proceeded at 37° C. for 30 minutes and the reaction solution was transferred to a capillary tube. The conditions used for analysis were as follows: central field: 3475 G, modulation width: 0.2 mT, 22 amplitude: 500 mT, scan width: 10 mT, set microwave power: 8 mW.

The target in assay [2] is T1, angiotensin I converting enzyme (ACE) (Oryctolagus cuniculus, UniProt P12822).
T1 construct: The crude enzyme solution used herein was the supernatant obtained by centrifuging; tissue Sigma-Aldrich Co; host or cells: rabbit lung (acetone powder, crude extract supernatant)
T1 sequence (P12822 34-1310): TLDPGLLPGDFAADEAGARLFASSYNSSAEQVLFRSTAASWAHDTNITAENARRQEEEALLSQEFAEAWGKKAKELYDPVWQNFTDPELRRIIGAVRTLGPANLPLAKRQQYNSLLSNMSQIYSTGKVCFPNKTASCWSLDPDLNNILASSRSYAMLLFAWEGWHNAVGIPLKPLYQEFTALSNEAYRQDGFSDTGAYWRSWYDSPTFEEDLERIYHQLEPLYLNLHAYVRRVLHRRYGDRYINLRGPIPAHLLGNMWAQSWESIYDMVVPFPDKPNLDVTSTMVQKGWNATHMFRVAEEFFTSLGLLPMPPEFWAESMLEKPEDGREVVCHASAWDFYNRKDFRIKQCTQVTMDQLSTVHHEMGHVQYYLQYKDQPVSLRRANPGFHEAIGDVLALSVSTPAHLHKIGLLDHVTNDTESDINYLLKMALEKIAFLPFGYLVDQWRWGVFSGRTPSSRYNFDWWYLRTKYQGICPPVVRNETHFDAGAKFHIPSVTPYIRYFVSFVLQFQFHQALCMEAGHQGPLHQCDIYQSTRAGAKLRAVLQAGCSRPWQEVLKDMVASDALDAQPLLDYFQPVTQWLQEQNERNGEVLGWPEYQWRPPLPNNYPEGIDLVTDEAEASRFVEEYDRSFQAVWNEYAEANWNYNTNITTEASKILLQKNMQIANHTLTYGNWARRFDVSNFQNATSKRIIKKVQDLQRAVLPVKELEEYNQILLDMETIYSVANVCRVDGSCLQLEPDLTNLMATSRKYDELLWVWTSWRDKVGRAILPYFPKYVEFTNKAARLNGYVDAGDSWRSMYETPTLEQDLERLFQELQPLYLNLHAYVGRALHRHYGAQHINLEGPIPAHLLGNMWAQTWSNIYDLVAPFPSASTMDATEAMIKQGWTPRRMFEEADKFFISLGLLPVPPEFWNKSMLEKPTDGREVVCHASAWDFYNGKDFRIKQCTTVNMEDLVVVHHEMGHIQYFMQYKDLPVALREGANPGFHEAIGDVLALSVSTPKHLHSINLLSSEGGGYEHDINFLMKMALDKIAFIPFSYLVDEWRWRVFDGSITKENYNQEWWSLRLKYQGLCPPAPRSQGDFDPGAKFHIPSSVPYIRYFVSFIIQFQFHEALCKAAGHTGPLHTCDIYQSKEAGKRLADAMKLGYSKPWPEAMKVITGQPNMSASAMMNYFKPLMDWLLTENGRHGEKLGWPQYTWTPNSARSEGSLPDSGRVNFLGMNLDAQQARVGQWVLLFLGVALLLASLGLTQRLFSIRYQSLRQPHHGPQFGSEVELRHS
Briefly: ACE inhibition activity (modified Cushman and Cheung's method). The class given is biochemical, rabbit. The settings on record: read-out: concentration inhibiting 50% of ACE (IC50) (converted). Here is the method: ACE inhibition activity was measured by a modified version of Cushman and Cheung's method. The crude enzyme solution used herein was the supernatant obtained by centrifuging (4° C., 4,000 rpm, 40 min) after extracting a rabbit lung acetone powder (Sigma-Aldrich Co.) at a concentration of 0.2 g/10 mL (w/v) and at 4° C. for 24 hours. The substrate was prepared by dissolving hippurylhistidyl-leucine ([…], Sigma-Aldrich Co.) at a concentration of 5 mg/mL (w/v) in a 0.1 M sodium borate buffer (pH 8.3) containing 0.3 M NaCl.
ACE inhibition activity was determined as follows. 50 μL of an ACE enzyme solution was added to 50 μL of a sample extract, reaction was proceeded at 37° C. for 5 minutes, 50 μL of a substrate was added thereto and the reaction was proceeded at 37° C. for 1 hour. Then, 150 μL of 1N HCl was added to stop the reaction, 750 μL of ethyl acetate was added thereto, and the mixture was stirred for 1 minute and centrifuged (3,500 rpm, 10 min) to obtain 500 μL of the supernatant. The supernatant was completely dried at 105° C. for 4 hours, 2 mL of ethyl acetate was added thereto, and the absorbance was measured at 228 nm. A control group was obtained by adding 50 μL of distilled water, instead of the sample extract.

On to `CC[C@H](C)[C@H](N)C(=O)N[C@H](C(=O)N[C@@H](CC(=O)O)C(=O)N[C@@H](CCCNC(=N)N)C(=O)O)C(C)C` [IVDR, Ile-Val-Asp-Arg] (H-IVDR-OH; N-terminus and C-terminus assumed), for which the “IC50 value Alkyl radical scavenging activity” value in assay [1] came out at 68 µg/mL (≈ 136 µM). Further, the IC50 in assay [2] is 63.8 µM.
For `NCCCC[C@H](NC(=O)[C@H](Cc1ccc(O)cc1)NC(=O)[C@@H](N)Cc1c[nH]c2ccccc12)C(=O)O` [WYK, Trp-Tyr-Lys] (H-Trp-Tyr-Lys-OH; N-terminus and C-terminus assumed), in that order: 40 µg/mL (≈ 80.7 µM) and 32.3 µM.
For VASVI [VASVI, Val-Ala-Ser-Val-Ile], in that order: 77 µg/mL and 117 µM.
